{
  "source": "PubChem BioAssay (NCI)",
  "experiment_in_all_cases": "NCI tumour cell line growth inhibition, 48 h",
  "key": {"UACC-62 melanoma": {"test_system": "UACC-62 melanoma"}, "SK-OV-3 ovarian": {"test_system": "SK-OV-3 ovarian"}, "SF-268 CNS": {"test_system": "SF-268 CNS"}, "UACC-257 melanoma": {"test_system": "UACC-257 melanoma"}, "RPMI-8226 leukemia": {"test_system": "RPMI-8226 leukemia"}, "HCT-15 colon": {"test_system": "HCT-15 colon"}, "DU-145 prostate": {"test_system": "DU-145 prostate"}, "HCC-2998 colon": {"test_system": "HCC-2998 colon"}, "U251 CNS": {"test_system": "U251 CNS"}, "OVCAR-4 ovarian": {"test_system": "OVCAR-4 ovarian"}, "OVCAR-5 ovarian": {"test_system": "OVCAR-5 ovarian"}, "SNB-75 CNS": {"test_system": "SNB-75 CNS"}, "SN12C renal": {"test_system": "SN12C renal"}, "SW-620 colon": {"test_system": "SW-620 colon"}, "MOLT-4 leukemia": {"test_system": "MOLT-4 leukemia"}, "786-0 renal": {"test_system": "786-0 renal"}, "HOP-92 NSCLC": {"test_system": "HOP-92 NSCLC"}, "MDA-MB-231 breast": {"test_system": "MDA-MB-231 breast"}, "HCT-116 colon": {"test_system": "HCT-116 colon"}, "EKVX NSCLC": {"test_system": "EKVX NSCLC"}, "NCI/ADR-RES ovarian": {"test_system": "NCI/ADR-RES ovarian"}, "IGROV1 ovarian": {"test_system": "IGROV1 ovarian"}, "HOP-62 NSCLC": {"test_system": "HOP-62 NSCLC"}, "CCRF-CEM leukemia": {"test_system": "CCRF-CEM leukemia"}, "HL-60(TB) leukemia": {"test_system": "HL-60(TB) leukemia"}, "CAKI-1 renal": {"test_system": "CAKI-1 renal"}, "SK-MEL-28 melanoma": {"test_system": "SK-MEL-28 melanoma"}, "OVCAR-3 ovarian": {"test_system": "OVCAR-3 ovarian"}},
  "note": "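Test compounds were applied to cells in 96-well plates for 48 hours at 5 doses. GI50: concentration for 50% inhibition of growth. The concentration for full growth arrest is given as TGI.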",
  "data": [
    {"compound": "Nc1nc(-c2cccc([N+](=O)[O-])c2)c(N=Nc2ccc(Br)cc2)s1", "values": [
      {"measurement": "GI50", "setting": "UACC-62 melanoma", "value": 15.1, "unit": "µM"},
      {"measurement": "TGI", "setting": "UACC-62 melanoma", "value": 41.4, "unit": "µM"},
      {"measurement": "GI50", "setting": "SK-OV-3 ovarian", "value": 16, "unit": "µM"},
      {"measurement": "TGI", "setting": "SK-OV-3 ovarian", "value": 30.1, "unit": "µM"},
      {"measurement": "GI50", "setting": "SF-268 CNS", "value": 19.1, "unit": "µM"},
      {"measurement": "TGI", "setting": "SF-268 CNS", "value": 99.4, "unit": "µM"},
      {"measurement": "GI50", "setting": "UACC-257 melanoma", "value": 22.4, "unit": "µM"},
      {"measurement": "TGI", "setting": "UACC-257 melanoma", "value": 50.8, "unit": "µM"},
      {"measurement": "GI50", "setting": "RPMI-8226 leukemia", "value": 21, "unit": "µM"},
      {"measurement": "TGI", "setting": "RPMI-8226 leukemia", "value": "> 100", "unit": "µM"},
      {"measurement": "GI50", "setting": "HCT-15 colon", "value": 5.57, "unit": "µM"},
      {"measurement": "TGI", "setting": "HCT-15 colon", "value": 33.2, "unit": "µM"},
      {"measurement": "GI50", "setting": "DU-145 prostate", "value": 8.14, "unit": "µM"},
      {"measurement": "TGI", "setting": "DU-145 prostate", "value": 25.8, "unit": "µM"},
      {"measurement": "GI50", "setting": "HCC-2998 colon", "value": 18.7, "unit": "µM"},
      {"measurement": "TGI", "setting": "HCC-2998 colon", "value": 38.8, "unit": "µM"},
      {"measurement": "GI50", "setting": "U251 CNS", "value": 14.2, "unit": "µM"},
      {"measurement": "TGI", "setting": "U251 CNS", "value": 33.6, "unit": "µM"},
      {"measurement": "GI50", "setting": "OVCAR-4 ovarian", "value": 11.1, "unit": "µM"},
      {"measurement": "TGI", "setting": "OVCAR-4 ovarian", "value": 63.3, "unit": "µM"},
      {"measurement": "GI50", "setting": "OVCAR-5 ovarian", "value": 20.3, "unit": "µM"},
      {"measurement": "TGI", "setting": "OVCAR-5 ovarian", "value": 54.4, "unit": "µM"},
      {"measurement": "GI50", "setting": "SNB-75 CNS", "value": 18.4, "unit": "µM"},
      {"measurement": "TGI", "setting": "SNB-75 CNS", "value": 41.1, "unit": "µM"},
      {"measurement": "GI50", "setting": "SN12C renal", "value": 14.1, "unit": "µM"},
      {"measurement": "TGI", "setting": "SN12C renal", "value": 37.2, "unit": "µM"},
      {"measurement": "GI50", "setting": "SW-620 colon", "value": 15.4, "unit": "µM"},
      {"measurement": "TGI", "setting": "SW-620 colon", "value": 78.8, "unit": "µM"},
      {"measurement": "GI50", "setting": "MOLT-4 leukemia", "value": 12, "unit": "µM"},
      {"measurement": "TGI", "setting": "MOLT-4 leukemia", "value": "> 100", "unit": "µM"},
      {"measurement": "GI50", "setting": "786-0 renal", "value": 13.6, "unit": "µM"},
      {"measurement": "TGI", "setting": "786-0 renal", "value": 27.5, "unit": "µM"},
      {"measurement": "GI50", "setting": "HOP-92 NSCLC", "value": 10.1, "unit": "µM"},
      {"measurement": "TGI", "setting": "HOP-92 NSCLC", "value": 32.1, "unit": "µM"},
      {"measurement": "GI50", "setting": "MDA-MB-231 breast", "value": 7.74, "unit": "µM"},
      {"measurement": "TGI", "setting": "MDA-MB-231 breast", "value": 24, "unit": "µM"},
      {"measurement": "GI50", "setting": "HCT-116 colon", "value": 4.63, "unit": "µM"},
      {"measurement": "TGI", "setting": "HCT-116 colon", "value": 16, "unit": "µM"},
      {"measurement": "GI50", "setting": "EKVX NSCLC", "value": 17.9, "unit": "µM"},
      {"measurement": "TGI", "setting": "EKVX NSCLC", "value": 64.1, "unit": "µM"},
      {"measurement": "GI50", "setting": "NCI/ADR-RES ovarian", "value": 7.93, "unit": "µM"},
      {"measurement": "TGI", "setting": "NCI/ADR-RES ovarian", "value": "> 100", "unit": "µM"},
      {"measurement": "GI50", "setting": "IGROV1 ovarian", "value": 16.2, "unit": "µM"},
      {"measurement": "TGI", "setting": "IGROV1 ovarian", "value": 47.8, "unit": "µM"},
      {"measurement": "GI50", "setting": "HOP-62 NSCLC", "value": 15.2, "unit": "µM"},
      {"measurement": "TGI", "setting": "HOP-62 NSCLC", "value": 29.8, "unit": "µM"},
      {"measurement": "GI50", "setting": "CCRF-CEM leukemia", "value": 13.4, "unit": "µM"},
      {"measurement": "TGI", "setting": "CCRF-CEM leukemia", "value": "> 100", "unit": "µM"},
      {"measurement": "GI50", "setting": "HL-60(TB) leukemia", "value": 91.2, "unit": "µM"},
      {"measurement": "TGI", "setting": "HL-60(TB) leukemia", "value": "> 100", "unit": "µM"},
      {"measurement": "GI50", "setting": "CAKI-1 renal", "value": 12, "unit": "µM"},
      {"measurement": "TGI", "setting": "CAKI-1 renal", "value": 24.3, "unit": "µM"},
      {"measurement": "GI50", "setting": "SK-MEL-28 melanoma", "value": 18.7, "unit": "µM"},
      {"measurement": "TGI", "setting": "SK-MEL-28 melanoma", "value": 47, "unit": "µM"},
      {"measurement": "GI50", "setting": "OVCAR-3 ovarian", "value": 18.6, "unit": "µM"},
      {"measurement": "TGI", "setting": "OVCAR-3 ovarian", "value": 41.3, "unit": "µM"}
    ]}
  ]
}
